According to patent US10597388B2, “Pyridazinone herbicides” (FMC CORPORATION, priority 2014, dated 2020):

Tests used:
Experiment in all cases: Test E greenhouse herbicide test, pre- and postemergence
Type in all cases: in vivo
[1] = test system: velvetleaf (Abutilon theophrasti); details: Preemergence
Procedure, shortened: (§1)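 Seeds were sown in silt loam and sprayed preemergence with compound in a non-phytotoxic solvent mix containing surfactant; for postemergence, plants at 2 to 18 cm (1- to 4-leaf stage) in peat-based potting medium were sprayed with the same formulation. After 14 to 21 d in a greenhouse, injury was rated visually against controls (0–100).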

[2] = test system: Italian ryegrass (Lolium multiflorum)
Procedure, shortened: as §1

[3] = test system: barnyardgrass (Echinochloa crus-galli)
Procedure, shortened: as §1

[4] = test system: nutsedge, yellow (yellow nutsedge, Cyperus esculentus); details: Preemergence
Procedure, shortened: as §1

[5] = test system: momingglory (Ipomoea coccinea); details: Preemergence
Procedure, shortened: as §1

[6] = test system: wild poinsettia (Euphorbia heterophylla)
Procedure, shortened: as §1

soybean (Glycine max) = test system: soybean (Glycine max)
Procedure, shortened: as §1

[7] = test system: johnsongrass (Sorghum halepense); details: Preemergence
Procedure, shortened: as §1

[8] = test system: pigweed, palmer (palmer pigweed, Amaranthus palmeri)
Procedure, shortened: as §1

[9] = test system: dayflower (Virginia (VA) dayflower, Commelina virginica)
Procedure, shortened: as §1

[10] = test system: arrowleaf sida (Sida rhombifolia)
Procedure, shortened: as §1

corn (Zea mays) = test system: corn (Zea mays)
Procedure, shortened: as §1

[11] = test system: foxtail, green (green foxtail, Setaria viridis); details: Preemergence
Procedure, shortened: as §1

[12] = test system: lambsquarters (Chenopodium album); details: Preemergence
Procedure, shortened: as §1

[13] = 62 g ai/ha, scale 0 to 100 (0 no effect, 100 complete control)
[14] = 125 g ai/ha, scale 0 to 100 (0 no effect, 100 complete control)
[15] = 31 g ai/ha, scale 0 to 100, 0 no effect, 100 complete control
[16] = 250 g ai/ha, visual, scale 0 no effect to 100 complete control
[17] = 62 g ai/ha, Postemergence, scale 0 to 100 (0 no effect, 100 complete control)
[18] = 62 g ai/ha, Preemergence, scale 0 to 100 (0 no effect, 100 complete control)
[19] = 125 g ai/ha, Postemergence, scale 0 to 100 (0 no effect, 100 complete control)
[20] = 125 g ai/ha, Preemergence, scale 0 to 100 (0 no effect, 100 complete control)
[21] = 250 g ai/ha, Postemergence, scale 0 to 100 (0 no effect, 100 complete control)
[22] = Postemergence, 31 g ai/ha, visual, scale 0 no effect to 100 complete control
[23] = Preemergence, 31 g ai/ha, scale 0 to 100, 0 no effect, 100 complete control
[24] = Preemergence, 250 g ai/ha, visual, scale 0 no effect to 100 complete control

**Q.** `Cc1ccc2sc(Br)c(-c3c(O)c(C)nn(C)c3=O)c2c1` [Compound 79] was tested. Which “Plant response rating, Velvetleaf” value [1, 13] did it give?
**A.** Its value is 80.

**Q.** What about the “Plant response rating, Velvetleaf” value [1, 14] of the same compound?
**A.** Its value is 95.

**Q.** What about the “Plant response rating, Velvetleaf” value [1, 15] of the same compound?
**A.** The value was 70.

**Q.** And the “Plant response rating, Velvetleaf” value [1, 16]?
**A.** Its value is 100.

**Q.** And the “Plant response rating, Ryegrass, Italian” value [2, 17]?
**A.** Its value is 40.

**Q.** And the “Plant response rating, Ryegrass, Italian” value [2, 18]?
**A.** The value was 80.

**Q.** What about the “Plant response rating, Ryegrass, Italian” value [2, 19] of the same compound?
**A.** Its value is 70.

**Q.** What about the “Plant response rating, Ryegrass, Italian” value [2, 20] of the same compound?
**A.** Its value is 100.

**Q.** And the “Plant response rating, Ryegrass, Italian” value [2, 21]?
**A.** Its value is 80.

**Q.** And the “Plant response rating, Ryegrass, Italian” value [2, 22]?
**A.** The value was 30.

**Q.** And the “Plant response rating, Ryegrass, Italian” value [2, 23]?
**A.** Its value is 75.

**Q.** And the “Plant response rating, Ryegrass, Italian” value [2, 24]?
**A.** Its value is 100.

**Q.** What about the “Plant response rating, Barnyardgrass” value [3, 17] of the same compound?
**A.** The value was 15.

**Q.** And the “Plant response rating, Barnyardgrass” value [3, 18]?
**A.** Its value is 30.

**Q.** And the “Plant response rating, Barnyardgrass” value [3, 19]?
**A.** Its value is 20.

**Q.** And the “Plant response rating, Barnyardgrass” value [3, 20]?
**A.** The value was 40.

**Q.** What about the “Plant response rating, Barnyardgrass” value [3, 21] of the same compound?
**A.** The value was 20.

**Q.** What about the “Plant response rating, Barnyardgrass” value [3, 22] of the same compound?
**A.** Its value is 15.

**Q.** What about the “Plant response rating, Barnyardgrass” value [3, 23] of the same compound?
**A.** The value was 30.

**Q.** What about the “Plant response rating, Barnyardgrass” value [3, 24] of the same compound?
**A.** Its value is 50.

**Q.** And the “Plant response rating, Nutsedge, Yellow” value [4, 13]?
**A.** The value was 60.

**Q.** What about the “Plant response rating, Nutsedge, Yellow” value [4, 14] of the same compound?
**A.** Its value is 65.

**Q.** And the “Plant response rating, Nutsedge, Yellow” value [4, 15]?
**A.** The value was 50.

**Q.** And the “Plant response rating, Nutsedge, Yellow” value [4, 16]?
**A.** The value was 75.

**Q.** And the “Plant response rating, Morningglory” value [5, 13]?
**A.** Its value is 85.

**Q.** And the “Plant response rating, Morningglory” value [5, 14]?
**A.** Its value is 90.

**Q.** And the “Plant response rating, Morningglory” value [5, 15]?
**A.** Its value is 60.

**Q.** And the “Plant response rating, Morningglory” value [5, 16]?
**A.** The value was 100.

**Q.** And the “Plant response rating, Poinsettia, Wild” value [6, 17]?
**A.** Its value is 10.

**Q.** And the “Plant response rating, Poinsettia, Wild” value [6, 18]?
**A.** The value was 60.

**Q.** What about the “Plant response rating, Poinsettia, Wild” value [6, 19] of the same compound?
**A.** The value was 20.

**Q.** What about the “Plant response rating, Poinsettia, Wild” value [6, 20] of the same compound?
**A.** Its value is 60.

**Q.** And the “Plant response rating, Poinsettia, Wild” value [6, 21]?
**A.** Its value is 10.

**Q.** And the “Plant response rating, Poinsettia, Wild” value [6, 22]?
**A.** Its value is 10.

**Q.** What about the “Plant response rating, Poinsettia, Wild” value [6, 23] of the same compound?
**A.** Its value is 50.

**Q.** What about the “Plant response rating, Poinsettia, Wild” value [6, 24] of the same compound?
**A.** The value was 55.

**Q.** And the “Plant response rating, Soybean” value (soybean (Glycine max); [17])?
**A.** Its value is 10.

**Q.** What about the “Plant response rating, Soybean” value (soybean (Glycine max); [18]) of the same compound?
**A.** Its value is 50.

**Q.** And the “Plant response rating, Soybean” value (soybean (Glycine max); [19])?
**A.** The value was 15.

**Q.** And the “Plant response rating, Soybean” value (soybean (Glycine max); [20])?
**A.** Its value is 40.

**Q.** And the “Plant response rating, Soybean” value (soybean (Glycine max); [21])?
**A.** The value was 10.

**Q.** And the “Plant response rating, Soybean” value (soybean (Glycine max); [22])?
**A.** Its value is 0.

**Q.** What about the “Plant response rating, Soybean” value (soybean (Glycine max); [23]) of the same compound?
**A.** Its value is 40.

**Q.** What about the “Plant response rating, Soybean” value (soybean (Glycine max); [24]) of the same compound?
**A.** Its value is 50.

**Q.** What about the “Plant response rating, Johnsongrass” value [7, 15] of the same compound?
**A.** The value was 70.

**Q.** What about the “Plant response rating, Johnsongrass” value [7, 16] of the same compound?
**A.** The value was 65.

**Q.** What about the “Plant response rating, Pigweed, Palmer” value [8, 17] of the same compound?
**A.** The value was 35.

**Q.** What about the “Plant response rating, Pigweed, Palmer” value [8, 18] of the same compound?
**A.** The value was 70.

**Q.** And the “Plant response rating, Pigweed, Palmer” value [8, 19]?
**A.** Its value is 40.

**Q.** What about the “Plant response rating, Pigweed, Palmer” value [8, 20] of the same compound?
**A.** The value was 70.

**Q.** And the “Plant response rating, Pigweed, Palmer” value [8, 21]?
**A.** The value was 75.

**Q.** And the “Plant response rating, Pigweed, Palmer” value [8, 22]?
**A.** The value was 40.

**Q.** What about the “Plant response rating, Pigweed, Palmer” value [8, 23] of the same compound?
**A.** Its value is 75.

**Q.** What about the “Plant response rating, Pigweed, Palmer” value [8, 24] of the same compound?
**A.** Its value is 75.

**Q.** And the “Plant response rating, Dayflower, VA” value [9, 17]?
**A.** Its value is 50.

**Q.** What about the “Plant response rating, Dayflower, VA” value [9, 18] of the same compound?
**A.** The value was 70.

**Q.** And the “Plant response rating, Dayflower, VA” value [9, 19]?
**A.** The value was 60.

**Q.** What about the “Plant response rating, Dayflower, VA” value [9, 20] of the same compound?
**A.** Its value is 65.

**Q.** What about the “Plant response rating, Dayflower, VA” value [9, 21] of the same compound?
**A.** Its value is 65.

**Q.** What about the “Plant response rating, Dayflower, VA” value [9, 22] of the same compound?
**A.** Its value is 50.

**Q.** What about the “Plant response rating, Dayflower, VA” value [9, 23] of the same compound?
**A.** The value was 50.

**Q.** And the “Plant response rating, Dayflower, VA” value [9, 24]?
**A.** The value was 70.

**Q.** And the “Plant response rating, Arrowleaf Sida” value [10, 17]?
**A.** Its value is 50.

**Q.** What about the “Plant response rating, Arrowleaf Sida” value [10, 18] of the same compound?
**A.** The value was 80.

**Q.** And the “Plant response rating, Arrowleaf Sida” value [10, 19]?
**A.** Its value is 60.

**Q.** And the “Plant response rating, Arrowleaf Sida” value [10, 20]?
**A.** Its value is 75.

**Q.** What about the “Plant response rating, Arrowleaf Sida” value [10, 21] of the same compound?
**A.** Its value is 70.

**Q.** And the “Plant response rating, Arrowleaf Sida” value [10, 22]?
**A.** The value was 50.

**Q.** And the “Plant response rating, Arrowleaf Sida” value [10, 23]?
**A.** The value was 75.

**Q.** What about the “Plant response rating, Arrowleaf Sida” value [10, 24] of the same compound?
**A.** Its value is 75.

**Q.** And the “Plant response rating, Corn” value (corn (Zea mays); [17])?
**A.** The value was 0.

**Q.** And the “Plant response rating, Corn” value (corn (Zea mays); [18])?
**A.** Its value is 0.

**Q.** What about the “Plant response rating, Corn” value (corn (Zea mays); [19]) of the same compound?
**A.** The value was 0.

**Q.** And the “Plant response rating, Corn” value (corn (Zea mays); [20])?
**A.** The value was 0.

**Q.** And the “Plant response rating, Corn” value (corn (Zea mays); [21])?
**A.** The value was 0.

**Q.** And the “Plant response rating, Corn” value (corn (Zea mays); [22])?
**A.** Its value is 0.

**Q.** What about the “Plant response rating, Corn” value (corn (Zea mays); [23]) of the same compound?
**A.** Its value is 0.

**Q.** And the “Plant response rating, Corn” value (corn (Zea mays); [24])?
**A.** The value was 20.

**Q.** And the “Plant response rating, Foxtail, Green” value [11, 13]?
**A.** Its value is 70.

**Q.** What about the “Plant response rating, Foxtail, Green” value [11, 14] of the same compound?
**A.** The value was 80.

**Q.** What about the “Plant response rating, Foxtail, Green” value [11, 15] of the same compound?
**A.** The value was 55.

**Q.** And the “Plant response rating, Foxtail, Green” value [11, 16]?
**A.** Its value is 90.

**Q.** And the “Plant response rating, Lambsquarters” value [12, 13]?
**A.** Its value is 100.

**Q.** And the “Plant response rating, Lambsquarters” value [12, 14]?
**A.** Its value is 100.

**Q.** What about the “Plant response rating, Lambsquarters” value [12, 15] of the same compound?
**A.** The value was 100.

**Q.** And the “Plant response rating, Lambsquarters” value [12, 16]?
**A.** The value was 100.
